Measurements: BindingDB's records for patent US20240043427 (Gilead Sciences, 2024)

Each compound was assayed against 5'-nucleotidase (Homo sapiens, UniProt P21589) (assay: CD73 Biochemical IC50 Assay).
Method: Compound serial dilutions were pre-spotted into Thermo Nunc assay plate. 50 uL CD73 enzyme buffer (CD73 purchased from R&D system=0.6 nM, 25 mM Tris, pH 7.4, 5 mM MgCl2, 1 mM NaH2PO4) was added into the assay plate and incubate for 15 mins. […] The samples were analyzed using Rapid fire.

Sequence of 5'-nucleotidase (P21589 whole entry): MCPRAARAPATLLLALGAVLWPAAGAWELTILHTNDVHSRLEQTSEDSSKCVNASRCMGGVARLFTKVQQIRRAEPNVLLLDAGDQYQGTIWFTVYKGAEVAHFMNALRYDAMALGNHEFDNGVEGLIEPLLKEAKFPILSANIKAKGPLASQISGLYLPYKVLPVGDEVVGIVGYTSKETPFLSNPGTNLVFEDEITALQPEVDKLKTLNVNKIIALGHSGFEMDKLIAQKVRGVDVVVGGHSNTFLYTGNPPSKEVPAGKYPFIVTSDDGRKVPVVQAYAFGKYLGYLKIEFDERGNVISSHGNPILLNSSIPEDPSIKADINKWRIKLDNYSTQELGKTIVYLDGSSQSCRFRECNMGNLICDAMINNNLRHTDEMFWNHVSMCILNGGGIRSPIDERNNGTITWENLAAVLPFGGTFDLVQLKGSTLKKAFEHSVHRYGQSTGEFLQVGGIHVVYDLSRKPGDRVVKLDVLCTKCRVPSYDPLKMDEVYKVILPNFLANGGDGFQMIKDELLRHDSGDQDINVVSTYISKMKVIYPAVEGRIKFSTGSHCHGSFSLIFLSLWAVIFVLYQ

| Structure (SMILES) | IC50 |
| --- | --- |
| O=c1[nH]cc(-c2cc(N3CC4CC(F)(C4)C3)c3nccn3n2)c(=O)[nH]1 [US20240043427, Example 579] | 19.1 nM |
| O=c1[nH]cc(-c2cc([C@H]3C[C@@H]3c3ccc4cnn(CC(F)(F)F)c4c3F)c3ncc(F)n3n2)c(=O)[nH]1 [US20240043427, Example 630] | 0.32 nM |
| CC(C)(C)COc1cc(-c2c[nH]c(=O)[nH]c2=O)nn2ccnc12 [US20240043427, Example 679] | 67.9 nM |
